Drawing on ChEMBL document CHEMBL1201862, “PubChem BioAssay data set” (2004), this text covers GI50 for two compounds.

Some test systems named below: HL-60; HCT-116; K562; SNB-75; MDA-N; SF-539; SN12C; A498; Hs-578T; TK-10; SF-268; A549; M14; HOP-92; RXF 393; SR; SK-MEL-2; SK-OV-3; ACHN; OVCAR-3.
Common to all, as to assay: NCI anticancer screen, dose series, 48 h

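Compound exposure: 48 hours, 5 concentrations, 96-well plates. GI50: concentration for 50% inhibition of growth.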 Calls of active or inactive are those of the source. Rule as the data show it: active = GI50 up to about 1.1 µM and inactive = higher. Where only a bound is given, the exact number is not on record here.

Take `CCOC(=O)NC`: the GI50 with HL-60, in the assay with HCT-116, in the assay on K562, in the assay on SNB-75, in the assay on MDA-N and in the assay on SF-539 was > 100 µM (inactive) in each case. Moreover, the GI50 in the assay on SN12C, in the assay with A498, in the assay with Hs-578T, with TK-10, in the assay on SF-268 and in the assay with A549 was > 100 µM (inactive) each time. In addition, the GI50 in the assay on M14, with HOP-92, with RXF 393, in the assay on SR, with SK-MEL-2 and with SK-OV-3 was > 100 µM (inactive) each time. Also, the GI50 with ACHN and in the assay with OVCAR-3 was > 100 µM (inactive) in each case.
Take `CC(C)C[C@H](NC(=O)[C@H](Cc1ccccc1)NC(=O)CCc1ccccc1)B(O)O`: the GI50 in the assay on HL-60, in the assay with HCT-116, in the assay with K562, in the assay on SNB-75, in the assay with MDA-N and with SF-539 was < 0.01 µM (active) in each case. Also, the GI50 in the assay on SN12C, in the assay with A498, in the assay on Hs-578T, in the assay with TK-10, with SF-268 and with A549 was < 0.01 µM (active) throughout. Moreover, the GI50 with M14, with HOP-92, in the assay on RXF 393, with SR, with SK-MEL-2 and with SK-OV-3 was < 0.01 µM (active) throughout. The GI50 in the assay on ACHN and in the assay with OVCAR-3 was < 0.01 µM (active) throughout.
